# Patent US20050245520A1, “2-Phenylpyridin-4-yl derivatives as alk5 inhibitors” (priority 2002, published 2005)
# Test system: TGF-β signalling (PAI-1 promoter-luciferase in HepG2 cells)
# Assay: Cellular transcriptional assay: PAI-1 promoter firefly luciferase reporter in cells exposed to TGF-β
# Assay type: cell-based
# Settings: 500 μM CPO in presence of TGF-β; relative to TGF-β only
# Description: Assay 1 (Cellular Transcriptional Assay)
# The assay was performed in HepG2 cells stably transfected with the PAI-1 promoter (known to be a strong TGF-β responsive promoter) linked to a luciferase (firefly) reporter gene. The compounds were selected on their ability to inhibit luciferase activity in cells exposed to TGF-β. In addition, cells were transfected with a second luciferase (Renilla) gene which was not driven by a TGF-β responsive promoter and was used as a toxicity control.
# 96 well microplates were seeded, using a multidrop apparatus, with the stably transfected cell line at a concentration of 35000 cells per well in 200 μl of serum-containing medium. These plates were placed in a cell incubator.
# 18 to 24 hours later (Day 2), cell-incubation procedure was launched. Cells were incubated with TGF-β and a candidate compound at concentrations in the range 50 nM to 10 μM (final concentration of DMSO 1%). The final concentration of TGF-β (rhTGFβ-1) used in the test was 1 ng/mL. Cells were incubated with a candidate compound 15-30 mins prior to the addition of TGF-β. The final volume of the test reaction was 150 μl. Each well contained only one candidate compound and its effect on the PAI-1 promoter was monitored.
# Columns 11 and 12 were employed as controls. Column 11 contained 8 wells in which the cells were incubated in the presence of TGF-β, without a candidate compound. Column 11 was used to determine the ‘reference TGF-β induced firefly luciferase value’ against which values measured in the test wells (to quantify inhibitory activity) were compared. […]
# 12 to 18 hours later (day 3), the luciferase quantification procedure was launched. […] Following agitation (15 to 30 mins), luciferase activities of the plates were read in a dual-injector luminometer (BMG lumistar). For this purpose, 50 μl of luciferase assay reagent and 50 μl of ‘Stop & Glo’ buffer were injected sequentially to quantify the activities of both luciferases. […] For each of the compounds tested, a concentration response curve was constructed from which an IC50 value was determined graphically.
row,Compound,firefly and renilla luciferase activities (toxicity control)
1,"O=C1C=CCC1 [CPO, Cyclopentenone, reference compound]",around 50%

# Test system: not given
# Assay: not given
# Settings: not given
row,Compound,melting point
1,"Cc1cccc(-c2nc3ccccn3c2-c2ccnc(-c3ccc(NS(=O)(=O)C(F)(F)F)cc3)c2)n1 [Example 53, 2-(6-methyl-pyridin-2-yl)-3-{2-[4-(trifluoromethylsulfonylamino)phenyl]-pyridin-4-yl}-imidazo[1,2-a]pyridine]",135 °C
2,"Cc1cccc(-c2[nH]c(C(C)(C)C)nc2-c2ccnc(-c3ccc(CN(C)C)cc3)c2)n1 [Example 101, (4-{4-[2-tert-Butyl-5-(6-methyl-pyridin-2-yl)-1H-imidazol-4-yl]-pyridin-2-yl}-benzyl)-dimethyl-amine]",187 °C
3,"Cc1cccc(-c2n[nH]cc2-c2ccnc(-c3ccc(OCc4cn(C)cn4)cc3)c2)n1 [Example 1, 2-{4-[(1-methyl-1H-imidazol-4-yl)methoxy]phenyl}-4-[3-(6-methylpyridin-2-yl)-1H-pyrazol-4-yl]pyridine]",191 °C
4,"CN1CCN(c2ccc(-c3cc(-c4c(-c5ccccn5)nc5ccccn45)ccn3)cc2)CC1 [Example 55, 3-{2-[4-(4-methylpiperazin-1-yl)-phenyl]-pyridin-4-yl}-2-pyridin-2-yl-imidazo[1,2-a]pyridine]",150 °C
5,"c1ccc(-c2nc3ccccn3c2-c2ccnc(-c3ccc(N4CCOCC4)cc3)c2)nc1 [Example 54, 3-[2-(4-(morpholin-4-yl)-phenyl)-pyridin-4-yl]-2-pyridin-2-yl-imidazo[1,2-a]pyridine]",145 °C
6,"Cc1cccc(-c2nc3ccccn3c2-c2ccnc(-c3ccc(N4CCOCC4)cc3)c2)n1 [Example 79, 2-(6-methyl-pyridin-2-yl)-3-{2-[4-(morpholin-4-yl)phenyl]-pyridin-4yl}-imidazo[1,2-a]pyridine]",190 °C
7,"COCCCNC(=O)c1ccc(-c2cc(-c3c(-c4cccc(C)n4)nc4ccccn34)ccn2)cc1 [Example 67, 2-(6-methyl-pyridin-2-yl)-3-{2-[4-((3-methoxypropylamino)carbonyl)phenyl]-pyridin-4-yl}-imidazo[1,2-a]pyridine]",165 °C
8,"COc1ccc(-c2cc(-c3c(-c4ccccn4)nc4ccccn34)ccn2)cc1 [Example 34, 3-[2-(4-methoxyphenyl)-pyridin-4-yl]-2-pyridin-2-yl-imidazo[1,2-a]pyridine]",222 °C
9,Cc1cccc(-c2sc(N)nc2-c2ccnc(-c3ccc(N4CCOCC4)cc3)c2)n1 [Example 132],246 °C
10,"Cc1cccc(-c2cn[nH]c2-c2ccnc(-c3ccc(C(=O)NC4CCOCC4)cc3)c2)n1 [Example 18, 3-[2-(4-((tetrahydropyran-4-yl)aminocarbonyl)phenyl)pyridin-yl]-4-[6-methylpyridin-2-yl]-1H-pyrazole]",170 °C
11,"Cc1cccc(-c2[nH]c(C(C)(C)C)nc2-c2ccnc(-c3ccc(OCC(N)=O)cc3)c2)n1 [Example 107, 2-{4-[4-(2-tert-Butyl-5-{6-methyl}pyridin-2-yl-1H-imidazol-4-yl)-pyridin-2-yl]-phenoxy}-acetamide]",210 °C
12,"Cc1cccc(-c2nc3ccccn3c2-c2ccnc(-c3ccc(OCc4cn(C)cn4)cc3)c2)n1 [Example 76, 2-(6-methyl-pyridin-2-yl)-3-{2-[4-((1-methyl-imidazol-4-yl)methyloxy)phenyl]-pyridin-4-yl}-imidazo[1,2-a]pyridine]",120 °C
13,Cc1cccc(-c2n[nH]cc2-c2ccnc(-c3ccc(OC(F)(F)F)cc3)c2)n1 [Example 4],131 °C
14,Cc1cccc(-c2sc(N)nc2-c2ccnc(-c3ccc(CN4CCOCC4)cc3)c2)n1 [Example 131],236 °C
15,"Cn1cnc(COc2ccc(-c3cc(-c4nc(C(C)(C)C)[nH]c4-c4ccccn4)ccn3)cc2)c1 [Example 109, 4-(2-tert-Butyl-5-pyridin-2-yl-1H-imidazol-4-yl)-2-[4-(1-methyl-1H-imidazol4-ylmethoxy)-phenyl]-pyridine]",156 °C
16,Cc1cccc(-c2c[nH]nc2-c2ccnc(-c3ccc(N4CCOCC4)cc3)c2)n1 [Example 20],210 °C
17,"CCS(=O)(=O)c1ccc(-c2cc(-c3c[nH]nc3-c3cccc(C)n3)ccn2)cc1 [Example 2, 2-[4-(Ethylsulfonyl)phenyl]-4-[3-(6-methylpyridin-2-yl)-1H-pyrazol-4-yl]pyridine]",244 °C
18,"Cc1cccc(-c2[nH]c(C(C)(C)C)nc2-c2ccnc(-c3ccc(OCCN4CCCC4)cc3)c2)n1 [Example 108, 4-(2-tert-Butyl-5-{6-methyl}-pyridin-2-yl-1H-imidazol-4-yl)-2-[4-(2-pyrrolidin-1-yl-ethoxy)-phenyl]-pyridine]",168 °C

row,Compound,melting point
1,Cc1cccc(-c2n[nH]cc2-c2ccnc(-c3ccc(S(C)(=O)=O)cc3)c2)n1 [Example 7],232 to 234 °C
2,Cc1cccc(-c2sc(N)nc2-c2ccnc(-c3ccc(OCC(N)=O)cc3)c2)n1 [Example 134],191 °C
3,Cc1cccc(-c2[nH]c(C(C)(C)C)nc2-c2ccnc(-c3ccc(C(=O)NC4CCOCC4)cc3)c2)n1 [Example 81],174 °C
4,"Cc1ccn2c(-c3ccnc(-c4ccc(OCc5cn(C)cn5)cc4)c3)c(-c3cccc(C)n3)nc2c1 [Example 75, 7-methyl-2-(6-methyl-pyridin-2-yl)-3-{2-[4-((1-methyl-imidazol-4-yl)methyloxy)phenyl]-pyridin-4-yl}-imidazol[1,2-a]pyridine]",217 °C
5,CCS(=O)(=O)c1ccc(-c2cc(-c3nc(N)sc3-c3cccc(C)n3)ccn2)cc1 [Example 127],219 °C
6,"Cc1ccn2c(-c3ccnc(-c4ccc(N5CCOCC5)cc4)c3)c(-c3cccc(C)n3)nc2c1 [Example 80, 7-methyl-2-(6-methyl-pyridin-2-yl)-3-{2-[4-(morpholin-4-yl)phenyl]-pyridin-4-yl}-imidazo[1,2-a]pyridine]",208 °C
7,"Cc1cccc(-c2nc3ccccn3c2-c2ccnc(-c3ccc(C(=O)N4CCOCC4)cc3)c2)n1 [Example 66, 2-(6-methyl-pyridin-2-yl)-3-{2-[4-((morpholin-4-yl)carbonyl)phenyl]-pyridin-4-yl}-imidazo[1,2-a]pyridine]",110 °C
8,"Cc1cccc(-c2n[nH]cc2-c2ccnc(-c3ccc(C(=O)NC4CCOCC4)cc3)c2)n1 [Example 14, 4-{4-[3-(6-methylpyridin-2-yl)-1H-pyrazol-4-yl]pyridin-2-yl}-N-(tetrahydro-2H-pyran-4-yl)benzamide]",148 °C
9,Cc1cccc(-c2sc(N)nc2-c2ccnc(-c3ccc(Cl)cc3)c2)n1 [Example 125],222 °C
10,Nc1nc(-c2ccccn2)c(-c2ccnc(-c3ccc(N4CCOCC4)cc3)c2)s1 [Example 111],246 °C
11,Cc1cccc(-c2sc(N)nc2-c2ccnc(-c3ccc(CN(C)C)cc3)c2)n1 [Example 137],210 °C
12,"Cc1cccc(-c2nc3c(C)cccn3c2-c2ccnc(-c3ccc(OCC(N)=O)cc3)c2)n1 [Example 78, 8-methyl-2-(6-methyl-pyridin-2-yl)-3-{2-[4-(aminocarbonylmethyloxyl)phenyl]-pyridin-4-yl}-imidazo[1,2-a]pyridine]",183 °C
13,"Cc1ccn2c(-c3ccnc(-c4ccc(OCC(N)=O)cc4)c3)c(-c3cccc(C)n3)nc2c1 [Example 77, 7-methyl-2-(6-methyl-pyridin-2-yl)-3-{2-[4(aminocarbonylmethyloxy)phenyl]-pyridin-4-yl}-imidazo[1,2-a]pyridine]",213 °C
14,Cc1cccc(-c2n[nH]cc2-c2ccnc(-c3ccc(Cl)cc3)c2)n1 [Example 5],190 °C
15,Cc1cccc(-c2n[nH]cc2-c2ccnc(-c3ccc(C#N)cc3)c2)n1 [Example 3],198 °C
16,"Cc1cccc(-c2nc3ccccn3c2-c2ccnc(-c3ccc(CN4CCOCC4)cc3)c2)n1 [Example 56, 2-(6-methyl-pyridin-2-yl)-3-[2-(4-(morpholin-4-ylmethyl)phenyl)-pyridin-4-yl]-imidazo[1,2-a]pyridine]",156 °C
17,Cc1cccc(-c2c[nH]nc2-c2ccnc(-c3ccc(CN4CCOCC4)cc3)c2)n1 [Example 21],128 °C
18,Cc1cccc(-c2sc(N)nc2-c2ccnc(-c3ccc(OC(F)(F)F)cc3)c2)n1 [Example 126],232 °C
